# Measured values as given in ChEMBL document CHEMBL5137004, “An overview on the synthetic urease inhibitors with structure-activity relationship and molecular docking” (Eur J Med Chem, 2022).
# Columns and labels:
# Urease [1] = target: T1, Urease (Canavalia ensiformis, UniProt P07374); assay: Inhibition of jack bean urease
# Urease [2] = target: T1, Urease; assay: Inhibition of jack bean urease assessed as reduction on ammonia production using urea as substrate incubated for 30 mins by indophenol reagent based UV-vis spectrophotometer
# Urease [3] = target: T1, Urease; assay: Inhibition of jack bean urease assessed as reduction on ammonia production using urea as substrate incubated for 15 mins by indophenol reagent based microplate reader assay
# [4] = Inhibition of urease (unknown origin)
# [5] = Antioxidant activity assessed as DPPH radical scavenging activity incubated for 30 mins; type: functional
# [6] = target: Urease subunit alpha/Urease subunit beta (Helicobacter pylori (strain ATCC 700392 / 26695) (Campylobacterpylori), UniProt P69996); assay: Inhibition of Helicobacter pylori urease; type: protein-complex assay
# Urease subunit alpha/Urease subunit beta, sequence (P69996 whole entry): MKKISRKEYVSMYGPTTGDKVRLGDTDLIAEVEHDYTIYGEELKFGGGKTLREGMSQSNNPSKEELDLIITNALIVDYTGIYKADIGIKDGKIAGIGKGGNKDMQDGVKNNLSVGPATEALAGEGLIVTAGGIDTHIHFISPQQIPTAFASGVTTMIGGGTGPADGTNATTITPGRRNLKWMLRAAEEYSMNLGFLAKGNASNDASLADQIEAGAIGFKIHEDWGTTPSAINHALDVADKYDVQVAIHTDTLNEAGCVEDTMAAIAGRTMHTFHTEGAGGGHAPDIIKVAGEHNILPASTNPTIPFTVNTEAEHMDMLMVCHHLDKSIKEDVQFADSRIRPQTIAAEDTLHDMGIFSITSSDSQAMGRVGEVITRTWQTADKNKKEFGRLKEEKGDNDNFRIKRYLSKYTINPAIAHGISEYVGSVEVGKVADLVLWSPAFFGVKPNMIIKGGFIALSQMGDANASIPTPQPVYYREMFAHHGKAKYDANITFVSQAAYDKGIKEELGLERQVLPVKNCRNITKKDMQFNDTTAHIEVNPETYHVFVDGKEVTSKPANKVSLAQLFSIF
# Urease subunit alpha/Urease subunit beta, sequence (P14916 whole entry, further chain): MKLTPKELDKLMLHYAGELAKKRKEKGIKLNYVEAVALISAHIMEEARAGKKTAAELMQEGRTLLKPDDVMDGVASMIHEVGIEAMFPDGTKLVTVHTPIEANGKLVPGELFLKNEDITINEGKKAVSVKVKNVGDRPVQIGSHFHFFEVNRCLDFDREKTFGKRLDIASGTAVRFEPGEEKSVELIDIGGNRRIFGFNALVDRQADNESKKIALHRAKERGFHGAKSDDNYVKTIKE
# [7] = Inhibition of urease (unknown origin) assessed as reduction on ammonia production using urea as substrate incubated for 15 mins by indophenol reagent based microplate reader assay
# Urease [8] = target: T1, Urease; assay: Inhibition of jack bean urease assessed as reduction on ammonia production using urea as substrate preincubated for 15 mins followed by substrate addition and measured after 15 mins by indophenol method
# Urease [9] = target: T1, Urease; assay: Inhibition of jack bean urease assessed as reduction on ammonia production using urea as substrate incubated for 30 mins by indophenol method
# Urease [10] = target: T1, Urease; assay: Non-competitive inhibition of jack bean urease assessed as dissociation constant measured upto 10 mins by Lineweaver-Burk plot analysis
# T1 sequence (P07374 whole entry): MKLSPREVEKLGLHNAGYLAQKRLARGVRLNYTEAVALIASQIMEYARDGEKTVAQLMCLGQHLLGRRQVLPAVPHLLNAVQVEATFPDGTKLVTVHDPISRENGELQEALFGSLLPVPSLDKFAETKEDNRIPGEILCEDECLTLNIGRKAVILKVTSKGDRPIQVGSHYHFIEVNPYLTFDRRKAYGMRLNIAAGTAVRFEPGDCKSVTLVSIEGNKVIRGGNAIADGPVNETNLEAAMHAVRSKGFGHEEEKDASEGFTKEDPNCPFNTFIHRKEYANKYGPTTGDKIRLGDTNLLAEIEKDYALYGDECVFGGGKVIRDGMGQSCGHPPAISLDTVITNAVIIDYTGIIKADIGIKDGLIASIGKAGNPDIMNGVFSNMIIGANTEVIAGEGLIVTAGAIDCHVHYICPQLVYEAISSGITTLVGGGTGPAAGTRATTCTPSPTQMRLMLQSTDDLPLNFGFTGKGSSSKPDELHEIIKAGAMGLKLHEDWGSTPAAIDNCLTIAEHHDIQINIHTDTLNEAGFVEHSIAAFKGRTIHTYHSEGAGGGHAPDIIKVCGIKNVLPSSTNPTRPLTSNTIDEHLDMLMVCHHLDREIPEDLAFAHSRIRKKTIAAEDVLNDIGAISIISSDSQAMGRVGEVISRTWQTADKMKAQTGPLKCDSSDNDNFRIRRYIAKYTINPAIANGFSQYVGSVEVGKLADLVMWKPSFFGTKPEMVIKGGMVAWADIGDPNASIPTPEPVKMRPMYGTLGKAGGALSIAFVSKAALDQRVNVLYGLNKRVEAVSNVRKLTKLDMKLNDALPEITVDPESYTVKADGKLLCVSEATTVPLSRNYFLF
smiles,measurement,setting,value
C/C(=N\NC(=S)Nc1cccc([N+](=O)[O-])c1)c1cc2ccccc2o1,IC50,Urease [1],0.077 µM
S=P(Nc1ccc(CCc2ccc(NP(=S)(c3ccccc3)c3ccccc3)cc2)cc1)(c1ccccc1)c1ccccc1,IC50,Urease [2],0.00191 µM
Cc1ncc([N+](=O)[O-])n1Cc1cn(Cc2ccc(F)cc2)nn1,IC50,Urease [1],1.97 µM
NS(=O)(=O)c1ccc(NC=C2C(=O)NC(=S)NC2=O)cc1,IC50,Urease [3],3.76 µM
O=c1c2ccccc2nc(Cc2ccccc2)n1Cc1nnc(Nc2ccc([N+](=O)[O-])cc2)s1,IC50,[4],3.3 µg/mL
CCc1nc2ccccc2c(=O)n1CC(=O)NNC(=O)c1cc2cc(Br)ccc2oc1=O,IC50,[4],1.26 µg/mL
Cc1nc2cc(Cl)c(Cl)cc2n1CC(=O)NNC(=S)Nc1ccc([N+](=O)[O-])cc1,IC50,Urease [2],0.0354 µM
COc1ccc2cc([C@@H](C)c3nc4cc(Cl)ccc4[nH]3)ccc2c1,IC50,Urease [3],36 µM
O=C(Cc1nnn[nH]1)Cn1nc(-c2ccccc2O)nc1-c1ccccc1O,IC50,Urease [1],1.27 µM
COc1ccc(-c2c/c(=N\C(=S)Nc3cccc([N+](=O)[O-])c3)c3c(O)cc(O[C@@H]4O[C@H](CO)[C@@H](O)[C@H](O)[C@H]4O[C@@H]4O[C@@H](C)[C@H](O)[C@@H](O)[C@H]4O)cc3o2)cc1O,IC50,Urease [3],12.6 µM
same,IC50,[5],5.2 µM
Oc1ccc(C2Oc3cc(O)cc(O)c3/C(=N/C(=S)Nc3ccccc3)C2O)c(O)c1 (configuration not stated),IC50,Urease [3],7.37 µM
O=C1NC(=S)NC(=O)C1=CNc1cc([N+](=O)[O-])ccc1C(=O)O,IC50,[4]; read-out: IC50,8.53 µM
CC(C)=CCN1C(=O)/C(=N/Nc2ccccc2)c2ccccc21,IC50,[4]; read-out: IC50,0.71 µM
NC(=O)NO [HYDROXYUREA],IC50,[6],100 µM
O=C(CC(O)c1cc(Cl)ccc1OCc1ccccc1)NO (configuration not stated),IC50,[4]; read-out: IC50,0.15 µM
COc1ccc(-c2c/c(=N\C(=O)Oc3ccccc3)c3c(O)cc(O[C@@H]4O[C@H](CO)[C@@H](O)[C@H](O)[C@H]4O[C@@H]4O[C@@H](C)[C@H](O)[C@@H](O)[C@H]4O)cc3o2)cc1O,IC50,Urease [3],15.6 µM
same,IC50,[5],5.64 µM
CCNc1cc2c(cc1C)C1(c3cc(C)c(NCC)cc3O2)c2ccccc2C(=O)N1NC(=O)c1ccccc1,IC50,Urease [1],0.111 µM
O=C(NNC(=S)Nc1ccc([N+](=O)[O-])cc1)c1ccc(-c2nc3ccccc3s2)cc1,IC50,[7],1.4 µM
Nc1cccc(C(c2c(O)c3ccccc3oc2=O)c2c(O)c3ccccc3oc2=O)c1,IC50,[4]; read-out: IC50,74.3 µM
O=[N+]([O-])c1ccc(S(=O)(=O)N/N=C(\c2ccccc2)c2ccc(O)cc2)cc1,IC50,[4]; read-out: IC50,3.9 µM
C[C@H](O)c1nc2ccccc2[nH]1,IC50,Urease [3],22 µM
Cc1nc2cc(Cl)c(Cl)cc2n1Cc1nnc(S)n1-c1ccc([N+](=O)[O-])cc1,IC50,Urease [2],0.0294 µM
CC(C)NCC(O)COc1ccc(CC(N)=O)cc1 (configuration not stated) [ATENOLOL],IC50,Urease [8],64.4 µM
CCc1nc2cc([N+](=O)[O-])ccc2n1S(=O)(=O)c1ccc(C)cc1,IC50,Urease [1],31.1 µM
NC(N)=S [THIOUREA],IC50,Urease [9],18.2 µM
same,IC50,[6],23 µM
O=[N+]([O-])c1ccc(S(=O)(=O)Nc2nnc(-c3ccc(C(c4c[nH]c5ccc(Br)cc45)c4c[nH]c5ccc(Br)cc45)cc3)s2)c([N+](=O)[O-])c1,IC50,[4]; read-out: IC50,0.5 µM
CCCCCCCCCCCCCC(=O)NC(=S)Nc1cccc(Cl)c1,IC50,Urease [9],0.0391 µM
same,Ki,Urease [10],0.021 µM
COc1ccc(C(=O)NNC(=O)c2cc(Cl)cc(Cl)c2)cc1,IC50,[4]; read-out: IC50,0.87 µM
O=C1O[C@H]([C@@H](O)CO)C(O)=C1O [ASCORBIC ACID],IC50,Urease [1],8.59 µM
Cc1ccc(/C=N/Nc2nc(-c3ccc(Br)cc3)cs2)cc1,IC50,[4]; read-out: IC50,0.11 µM
CCNC1NN=C(Cn2c(Cc3ccc(F)cc3)nc3ccccc3c2=O)S1 (configuration not stated),IC50,Urease [1],4.73 µM
COc1cc(C(=O)c2c(O)c3ccccc3oc2=O)cc(OC)c1OC,IC50,Urease [1],11.3 µM
O=C1Nc2ccc(Cl)cc2/C1=C\c1ccc(C(=O)N/N=C/c2c(O)cc(O)cc2O)cc1,IC50,[4]; read-out: IC50,13 µM
NNC(=O)c1ccc(C(=O)Cn2nc(-c3ccccc3O)nc2-c2ccccc2O)cc1,IC50,Urease [1],3.25 µM
CC(=O)NO [ACETOHYDROXAMIC ACID],IC50,[4]; read-out: IC50,29.2 µM
COc1ccc(/C=C/C(=O)c2ccc(O)cc2)cc1,IC50,[4]; read-out: IC50,11.5 µM
Nn1c(-c2ccc(Br)cc2)n[nH]c1=S,IC50,Urease [1],4.3 µM
O=C(N/N=C/c1c(O)ccc2c(=O)cc(-c3ccc(F)cc3)oc12)c1ccccc1,IC50,[4]; read-out: IC50,1.21 µM
O=C(/C=C/c1ccc(O)c(O)c1)O[C@@H]1C[C@](O)(C(=O)Nc2ccc(-c3ccc(Cl)cc3[N+](=O)[O-])cc2)CC(O)C1O (some centres not stated),IC50,Urease [1],11 µM
same,IC50,[5],5.1 µM
O=C(COc1ccc(CC2C(=O)NC(=O)NC2=O)cc1)Nc1cccc(Cl)c1Cl,IC50,[6],0.69 µM
COc1ccc(-c2nc(C(=O)NC3CCCCC3)cs2)cc1,IC50,[4]; read-out: IC50,1.82 µM
CCOc1ccc(NC(=S)N(CC(O)COc2ccc(CC(N)=O)cc2)C(C)C)cc1 (configuration not stated),IC50,Urease [1],11.7 µM
